Assay results published in patent publication US20230000813A1, “COMPOUND FOR THE TREATMENT OF BOVINE OR SWINE RESPIRATORY DISEASE” (Intervet Inc., priority 2016, published 2023).
≈ marks a conversion by molar mass, not a printed value. Where “and” joins values, the source holds several entries; their conditions need not be identical. Equal values may be shown once.

Columns and labels:
[1] = test system: Mannheimia haemolytica MH 12587 (1071, BRD field isolate, macrolide-resistance: erm+, E+); experiment: MIC, broth-microdilution (CLSI VET01-A4); format: cell-based; conditions: strain MH 12587, macrolide-resistant
Outline: (§1)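 Read-out is visual: the MIC is the lowest compound concentration at which no turbidity is seen by eye. Trays carried a doubling dilution series, with interpretation following CLSI VET01-S3.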

[2] = test system: Pasteurella multocida PM 12080 (IV102277-0093, BRD field isolate); experiment: MIC, broth-microdilution (CLSI VET01-A4); format: cell-based; conditions: strain PM 12080
Outline: as §1

[3] = test system: Mannheimia haemolytica MH 6357 (M7/2, reference strain, cattle infection strain); experiment: MIC, broth-microdilution (CLSI VET01-A4); format: cell-based; conditions: strain MH 6357
Outline: as §1

[4] = test system: Pasteurella multocida PM 10775 (080130003051, BRD field isolate); experiment: MIC, broth-microdilution (CLSI VET01-A4); format: cell-based; conditions: strain PM 10775
Outline: as §1

[5] = test system: Pasteurella multocida PM 6267 (P 2225 (L386), reference strain, mouse infection strain); experiment: MIC, broth-microdilution (CLSI VET01-A4); format: cell-based; conditions: strain PM 6267
Outline: as §1

[6] = test system: Mannheimia haemolytica MH 10720 (154, BRD field isolate); experiment: MIC, broth-microdilution (CLSI VET01-A4); format: cell-based; conditions: strain MH 10720
Outline: as §1

[7] = test system: Mannheimia haemolytica MH 6374 (ATCC 33396, reference strain); experiment: MIC, broth-microdilution (CLSI VET01-A4); format: cell-based; conditions: strain MH 6374
Outline: as §1

[8] = test system: Pasteurella multocida PM 6391 (ATCC 43137, reference strain); experiment: MIC, broth-microdilution (CLSI VET01-A4); format: cell-based; conditions: strain PM 6391
Outline: as §1

[9] = test system: 20 isolates of Actinobacillus (A.) pleuropneumoniae; experiment: MIC50/MIC90, broth-microdilution, European respiratory tract isolates; format: cell-based
Procedure: (§2) The in vitro activity of compounds against 20 isolates of Actinobacillus (A.) pleuropneumoniae, 20 of Bordetella (B.) bronchiseptica, 20 of Histophilus (H.) somni, 40 of Mannheimia (M.) haemolytica and 40 of Pasteurella (P.) multocida collected in different European countries were determined. All bacteria were isolated from the respiratory tract of swine and cattle suffering from respiratory disease. All isolates were epidemiologically unrelated as specified by the different suppliers.
(§3) The minimum inhibitory concentrations (MIC) of compounds according to the invention were determined by the broth-microdilution method according to CLSI document VET01-A4.
(§4) Microdilution trays containing a doubling dilution series of the test compounds were used for the tests.
(§5) The MIC results were interpreted according to the CLSI documents VET01-S3. The lowest concentration of compound at which no visible growth (i.e. no turbidity) detected by the unaided eye was recorded as the MIC.

[10] = test system: 20 isolates of Histophilus (H.) somni; experiment: as above; format: cell-based
Procedure: as §2, §3, §4, §5

[11] = test system: 20 isolates of Bordetella (B.) bronchiseptica; experiment: as above; format: cell-based
Procedure: as §2, §3, §4, §5

[12] = test system: 40 isolates of Mannheimia (M.) haemolytica; experiment: as above; format: cell-based
Procedure: as §2, §3, §4, §5

[13] = test system: 40 isolates of Pasteurella (P.) multocida; experiment: as above; format: cell-based
Procedure: as §2, §3, §4, §5

[14] = test system: M. haemolytica M7/2; experiment: Mannheimia haemolytica cattle lung infection model, efficacy (Example 9); format: in vivo, cattle calves; conditions: for Food consumption, cumulated for all animals in the group: 3 calves, SC 10 mg/kg BW
Procedure: (§6) Unless otherwise described the study was conducted as described in Example 8.
Calves were infected via intratracheal instillation of appr. 300 mL of M. haemolytica PBS suspension containing approximately 4×10^9 CFU M. haemolytica in late log phase on Day 0.
The following clinical findings were recorded: The general behavior scores of the animals before (DO am) and after infection with M. haemolytica in the different treated and control groups are indicated in FIG. 7-1: 0 =normal; 1=slightly depressive, 2=moderately depressive, 3=highly depressive, […] recumbency.
The following pathomorphological findings after section on Day 2 were recorded: After measuring the body weight and the lung weight the Lung body mass ratio was calculated as shown in FIG. 7-2. A healthy animal has a lung body mass ration around 1.7 or lower. The area percentage of lung consolidations compared to the total lung tissue and the lung score determined that is a combined score of such percentage of lung consoldiations and the grade. For the “grade” the degree of lung consolidation score was graded from 0 to 3 for each of eight lung lobes: 0 no visible changes, 1 low graded colour changes or induration, 2 medium graded induration, 3 high graded induration, hepatisation, necrosis.
The geometrical means (CFU/g tissue) of bacteriological re-isolations of Mannheimia haemolytica from lung tissue are illustrated in FIG. 7-4.

[15] = Plasma and tissue concentrations and pharmacokinetics in infected calves (Example 9); format: in vivo, cattle calves
Procedure: as §6

[16] = test system: Mannheimia haemolytica MH 12180 (KLI-02944, BRD field isolate); experiment: MIC, broth-microdilution (CLSI VET01-A4); format: cell-based; conditions: strain MH 12180
Procedure: (§7) The Minimum inhibitory concentrations (MIC) of compounds according to the invention were determined by the broth-microdilution method according to CLSI document VET01-A4.
(§8) Microdilution trays containing a doubling dilution series of the test compound were used for the tests.
as §5

[17] = test system: Pasteurella multocida PM 14426 (0006-439, BRD field isolate, macrolide-resistant); experiment: MIC, broth-microdilution (CLSI VET01-A4); format: cell-based; conditions: strain PM 14426, macrolide-resistant
Procedure: as §7, §8, §5

[18] = test system: Staphylococcus aureus SA 6114 (ATCC 29213, reference strain); experiment: MIC, broth-microdilution (CLSI VET01-A4); format: cell-based; conditions: strain SA 6114
Procedure: as §7, §8, §5

[19] = test system: Acinetobacter baumanii AB 15919 (IV369-2012, dermatitis field isolate); experiment: MIC, broth-microdilution (CLSI VET01-A4); format: cell-based; conditions: strain AB 15919
Procedure: as §7, §8, §5

[20] = test system: Acinetobacter baumanii AB 16496 (ATCC 19606, reference strain); experiment: MIC, broth-microdilution (CLSI VET01-A4); format: cell-based; conditions: strain AB 16496
Procedure: as §7, §8, §5

[21] = test system: Staphylococcus aureus SA 5816 (2139, mastitis field isolate); experiment: MIC, broth-microdilution (CLSI VET01-A4); format: cell-based; conditions: strain SA 5816
Procedure: as §7, §8, §5

[22] = calves infected with M. haemolytica, SC, single, 10 mg/kg BW, x = number of animals, n = total in group
[23] = SC single 10 mg/kg (C.105, C.189 in 10% Poloxamer 188; C.326 in 30% Captisol), individual animals and mean
[24] = SC single 10 mg/kg (C.105, C.189 in 10% Poloxamer 188; C.326 in 30% Captisol), individual animals and mean, 10 mg/kg
[25] = plasma, SC 10 mg/kg, mean, Phoenix WinNonlin

## COCCNCc1ccc(C#Cc2ccc(C(=O)N[C@H](C(=O)NO)[C@@H](C)O)cc2)s1 [C. 189]
[1]
  MIC: 1 µg/mL (≈ 2.32 µM)
[2]
  MIC: 0.063 µg/mL (≈ 0.146 µM)
[3]
  MIC: 0.5 µg/mL (≈ 1.16 µM)
[4]
  MIC: ≤0.016 µg/mL
[5]
  MIC: 0.5 µg/mL (≈ 1.16 µM)
[6]
  MIC: 0.125 µg/mL (≈ 0.29 µM)
[7]
  MIC: 0.25 µg/mL (≈ 0.579 µM)
[8]
  MIC: 0.25 µg/mL (≈ 0.579 µM)
[9]
  MIC50: 0.25 µg/mL (≈ 0.579 µM)
  MIC90: 0.25 µg/mL (≈ 0.579 µM)
[10]
  MIC50: 0.032 µg/mL (≈ 0.0742 µM)
  MIC90: 0.063 µg/mL (≈ 0.146 µM)
[11]
  MIC50: >16 µg/mL
  MIC90: >16 µg/mL
[12]
  MIC50: 0.25 µg/mL (≈ 0.579 µM)
  MIC90: 0.5 µg/mL (≈ 1.16 µM)
[13]
  MIC50: 0.032 µg/mL (≈ 0.0742 µM)
  MIC90: 0.063 µg/mL (≈ 0.146 µM)
[14]; D 0 am, after infection and treatment
  Food consumption, cumulated for all animals in the group: 4800 g
[14]; D 0 pm
  Food consumption, cumulated for all animals in the group: 4800 g
[14]; D +1 am
  Food consumption, cumulated for all animals in the group: 4800 g
[14]; D +1 pm
  Food consumption, cumulated for all animals in the group: 4800 g
[14]; D −1 (before infection)
  Food consumption, cumulated for all animals in the group: 4800 g
[14]; [22]
  Bacteriological Cure (x of n): 1/3
  Survival (x of n): 3/3
[14]; tested dosage of 10 mg/kg, conclusion in words
  efficacy against an artificial lung infection with M. haemolytica M7/2 in the calf: effective
[15]; [23]
  Concentration, Plasma 48 h: BLQ
  Concentration, Tissue (48 h) ELF: BLQ
  Concentration, Tissue (48 h) Liver: 22.5 ng/mL
  Concentration, Tissue (48 h) Lung: BLQ
  Concentration, Tissue (48 h) Muscle: BLQ
[15]; [24]
  Concentration, Plasma 0.5 h: 916 ng/mL and 892 ng/mL and 1350 ng/mL
  Concentration, Plasma 2 h: 465 ng/mL and 663 ng/mL and 788 ng/mL
  Concentration, Plasma 4 h: 433 ng/mL and 300 ng/mL and 430 ng/mL
  Concentration, Plasma 6 h: 339 ng/mL and 293 ng/mL and 289 ng/mL
  Concentration, Plasma 24 h: 31.3 ng/mL and 20.3 ng/mL and 21.8 ng/mL
  Concentration, Tissue (48 h) Kidney: BLQ (2×) and 25.1 ng/mL
  Concentration, Tissue (48 h) Liver: BLQ
[15]; [25]
  AUClast: 6236 ng·h/mL
  CI_F_obs: 26.08 mL/min/kg
  Cmax: 1053 ng/mL
  HL_Lambda_z (Half life time): 4.98 h
  MRTlast (Mean retention time till last measured value): 4.75 h
  Tmax: 0.5 h
  Vz_F_obs: 11.2 L/kg
[15]; predose, SC single 10 mg/kg (C.105, C.189 in 10% Poloxamer 188; C.326 in 30% Captisol), individual animals and mean
  Concentration, Plasma 0 h: BLQ
[16]
  MIC: 0.25 µg/mL (≈ 0.579 µM)
[17]
  MIC: 0.032 µg/mL (≈ 0.0742 µM)
[18]
  MIC: >16 µg/mL
[19]
  MIC: >16 µg/mL
[20]
  MIC: >16 µg/mL
[21]
  MIC: >16 µg/mL
